Assays:
giant foxtail = test: Test B pre/postemergence giant foxtail; type: in vivo, Setaria faberii; settings: Preemergence; for Plant response rating, Giant foxtail: Rate 125 g/ha
From the text: (§1) Seeds of bedstraw (Galium aparine), blackgrass (Alopecurus myosuroides), surinam grass (Brachiaria decumbens), cocklebur (Xanthium strumarium), corn (Zea mays), crabgrass (Digitaria sanguinalis), giant foxtail (Setaria faberii), morningglory (Ipomoea hederacea), pigweed (Amaranthus retroflexus), rape (Brassica napus), soybean (Glycine max), sugar beet (Beta vulgaris), velvetleaf (Abutilon theophrasti), wheat (Triticum aestivum), wild oat (Avena fatua) and purple nutsedge (Cyperus rotundus) tubers were planted and treated preemnergence with test chemicals formulated in a non-phytotoxic solvent mixture which included a surfactant.
(§2) At the same time, these crop and weed species were also treated with postemergence applications of test chemicals formulated in the same manner. Plants ranged in height from 2 to 18 cm (1- to 4-leaf stage) for postemergence treatments. Plant species in the flood test consisted of rice (Oryza sativa), smallflower flatsedge (Cyperus difformis), duck salad (Heteranthera limosa) and bamyardgrass (Echinochloa crus-galli) grown to the 2-leaf stage for testing. Treated plants and controls were maintained in a greenhouse for twelve to sixteen days, after which all species were compared to controls and visually evaluated. Plant response ratings, summarized in Table B, are based on a scale of 0 to 10 where 0 is no effect and 10 is complete control. A dash (−) response means no test result.

sugar beet = test: Test B pre/postemergence sugar beet; type: in vivo, Beta vulgaris; settings: Preemergence; for Plant response rating, Sugarbeets: Rate 125 g/ha
From the text: as §1, §2

morningglory = test: Test B pre/postemergence morningglory; type: in vivo, Ipomoea hederacea; settings: Preemergence; for Plant response rating, Morningglory: Rate 125 g/ha
From the text: as §1, §2

corn = test: Test B pre/postemergence corn; type: in vivo, Zea mays; settings: Preemergence; for Plant response rating, Corn: Rate 125 g/ha
From the text: as §1, §2

purple nutsedge = test: Test B pre/postemergence purple nutsedge; type: in vivo, Cyperus rotundus; settings: Preemergence; for Plant response rating, Nutsedge: Rate 125 g/ha
From the text: as §1, §2

bedstraw = test: Test B pre/postemergence bedstraw; type: in vivo, Galium aparine; settings: Preemergence
From the text: as §1, §2

velvetleaf = test: Test B pre/postemergence velvetleaf; type: in vivo, Abutilon theophrasti; settings: Preemergence; for Plant response rating, Velvetleaf: Rate 125 g/ha
From the text: as §1, §2

soybean = test: Test B pre/postemergence soybean; type: in vivo, Glycine max; settings: Preemergence; for Plant response rating, Soybean: Rate 125 g/ha
From the text: as §1, §2

crabgrass = test: Test B pre/postemergence crabgrass; type: in vivo, Digitaria sanguinalis; settings: Preemergence; for Plant response rating, Crabgrass: Rate 125 g/ha
From the text: as §1, §2

blackgrass = test: Test B pre/postemergence blackgrass; type: in vivo, Alopecurus myosuroides; settings: Preemergence
From the text: as §1, §2

wild oat = test: Test B pre/postemergence wild oat; type: in vivo, Avena fatua; settings: Preemergence; for Plant response rating, Wild oats: Rate 125 g/ha
From the text: as §1, §2

rape = test: Test B pre/postemergence rape; type: in vivo, Brassica napus; settings: Preemergence; for Plant response rating, Rape: Rate 125 g/ha
From the text: as §1, §2

pigweed = test: Test B pre/postemergence pigweed; type: in vivo, Amaranthus retroflexus; settings: Preemergence; for Plant response rating, Redroot pigweed: Rate 125 g/ha
From the text: as §1, §2

surinam grass = test: Test B pre/postemergence surinam grass; type: in vivo, Brachiaria decumbens; settings: Preemergence
From the text: as §1, §2

cocklebur = test: Test B pre/postemergence cocklebur; type: in vivo, Xanthium strumarium; settings: Preemergence
From the text: as §1, §2

wheat = test: Test B pre/postemergence wheat; type: in vivo, Triticum aestivum; settings: Preemergence; for Plant response rating, Wheat: Rate 125 g/ha
From the text: as §1, §2

[1] = Rate 62 g/ha, scale of 0 to 10 where 0 is no effect and 10 is complete control
[2] = scale of 0 to 10 where 0 is no effect and 10 is complete control
[3] = Rate 250 g/ha, scale 0 (no effect) to 10 (complete control)
[4] = Rate 125 g/ha, scale of 0 to 10 where 0 is no effect and 10 is complete control
[5] = Rate 500 g/ha, scale of 0 to 10 where 0 is no effect and 10 is complete control
[6] = Rate 500 g/ha, scale 0 to 10 (0 no effect, 10 complete control)

CC(C)N(C(=O)n1oc(=O)n(C(CF)CCl)c1=O)c1ccc(F)cc1 (racemic) [Compound 707]
Giant foxtail plant response rating (giant foxtail; [1]): 6 | Plant response rating, Giant foxtail (giant foxtail; [2]): 10 | Giant foxtail plant response rating (giant foxtail; [3]): 10 | Sugarbeets plant response rating (sugar beet; [1]): 6 | Plant response rating, Sugarbeets (sugar beet; [2]): 6 | Sugarbeets plant response rating (sugar beet; [3]): 8 | Morningglory plant response rating (morningglory; [1]): 3 | Plant response rating, Morningglory (morningglory; [2]): 3 | Morningglory plant response rating (morningglory; [3]): 4 | Corn plant response rating (corn; [1]): 0 | Plant response rating, Corn (corn; [2]): 0 | Corn plant response rating (corn; [3]): 2 | Nutsedge plant response rating (purple nutsedge; [1]): 0 | Plant response rating, Nutsedge (purple nutsedge; [2]): 0 | Nutsedge plant response rating (purple nutsedge; [3]): 0 | Bedstraw plant response rating (bedstraw; [1]): 7 | Plant response rating, Bedstraw (bedstraw; [4]): 7 | Bedstraw plant response rating (bedstraw; [3]): 10 | Plant response rating, Bedstraw (bedstraw; [5]): 10 | Velvetleaf plant response rating (velvetleaf; [1]): 3 | Plant response rating, Velvetleaf (velvetleaf; [2]): 5 | Velvetleaf plant response rating (velvetleaf; [3]): 5 | Soybean plant response rating (soybean; [1]): 0 | Plant response rating, Soybean (soybean; [2]): 0 | Soybean plant response rating (soybean; [3]): 0 | Crabgrass plant response rating (crabgrass; [1]): 5 | Plant response rating, Crabgrass (crabgrass; [2]): 9 | Crabgrass plant response rating (crabgrass; [3]): 9 | Blackgrass plant response rating (blackgrass; [1]): 9 | Plant response rating, Blackgrass (blackgrass; [4]): 10 | Blackgrass plant response rating (blackgrass; [3]): 10 | Plant response rating, Blackgrass (blackgrass; [5]): 10 | Wild oats plant response rating (wild oat; [1]): 8 | Plant response rating, Wild oats (wild oat; [2]): 8 | Wild oats plant response rating (wild oat; [3]): 9 | Rape plant response rating (rape; [1]): 8 | Plant response rating, Rape (rape; [2]): 8 | Rape plant response rating (rape; [3]): 10 | Plant response rating, Redroot pigweed (pigweed; [2]): 10 | Redroot pigweed plant response rating (pigweed; [3]): 10 | B. signalgrass plant response rating (surinam grass; [1]): 6 | Plant response rating, B. signalgrass (surinam grass; [4]): 7 | B. signalgrass plant response rating (surinam grass; [3]): 9 | Plant response rating, B. signalgrass (surinam grass; [5]): 10 | Cocklebur plant response rating (cocklebur; [1]): 0 | Plant response rating, Cocklebur (cocklebur; [4]): 0 | Cocklebur plant response rating (cocklebur; [3]): 0 | Plant response rating, Cocklebur (cocklebur; [5]): 0 | Wheat plant response rating (wheat; [1]): 2 | Plant response rating, Wheat (wheat; [2]): 2 | Wheat plant response rating (wheat; [3]): 2

CC(C)N(C(=O)n1oc(=O)n(C(C)C2=NOCC2)c1=O)c1ccccc1 (racemic) [Compound 729]
Giant foxtail plant response rating (giant foxtail; [1]): 9 | Plant response rating, Giant foxtail (giant foxtail; [2]): 9 | Giant foxtail plant response rating (giant foxtail; [3]): 9 | Giant foxtail plant response rating (giant foxtail; [6]): 10 | Sugarbeets plant response rating (sugar beet; [1]): 0 | Plant response rating, Sugarbeets (sugar beet; [2]): 0 | Sugarbeets plant response rating (sugar beet; [3]): 0 | Sugarbeets plant response rating (sugar beet; [6]): 7 | Morningglory plant response rating (morningglory; [1]): 0 | Plant response rating, Morningglory (morningglory; [2]): 0 | Morningglory plant response rating (morningglory; [3]): 2 | Morningglory plant response rating (morningglory; [6]): 8 | Corn plant response rating (corn; [1]): 0 | Plant response rating, Corn (corn; [2]): 0 | Corn plant response rating (corn; [3]): 6 | Corn plant response rating (corn; [6]): 9 | Nutsedge plant response rating (purple nutsedge; [1]): 0 | Plant response rating, Nutsedge (purple nutsedge; [2]): 0 | Nutsedge plant response rating (purple nutsedge; [6]): 2 | Bedstraw plant response rating (bedstraw; [1]): 0 | Plant response rating, Bedstraw (bedstraw; [4]): 0 | Bedstraw plant response rating (bedstraw; [3]): 8 | Bedstraw plant response rating (bedstraw; [6]): 8 | Velvetleaf plant response rating (velvetleaf; [1]): 0 | Plant response rating, Velvetleaf (velvetleaf; [2]): 2 | Velvetleaf plant response rating (velvetleaf; [3]): 4 | Velvetleaf plant response rating (velvetleaf; [6]): 8 | Soybean plant response rating (soybean; [1]): 0 | Plant response rating, Soybean (soybean; [2]): 0 | Soybean plant response rating (soybean; [3]): 2 | Soybean plant response rating (soybean; [6]): 2 | Crabgrass plant response rating (crabgrass; [1]): 7 | Plant response rating, Crabgrass (crabgrass; [2]): 9 | Crabgrass plant response rating (crabgrass; [3]): 9 | Crabgrass plant response rating (crabgrass; [6]): 10 | Blackgrass plant response rating (blackgrass; [1]): 6 | Plant response rating, Blackgrass (blackgrass; [4]): 10 | Blackgrass plant response rating (blackgrass; [3]): 10 | Blackgrass plant response rating (blackgrass; [6]): 10 | Wild oats plant response rating (wild oat; [1]): 2 | Plant response rating, Wild oats (wild oat; [2]): 7 | Wild oats plant response rating (wild oat; [3]): 10 | Wild oats plant response rating (wild oat; [6]): 10 | Rape plant response rating (rape; [1]): 0 | Plant response rating, Rape (rape; [2]): 2 | Rape plant response rating (rape; [3]): 3 | Rape plant response rating (rape; [6]): 10 | Redroot pigweed plant response rating (pigweed; [1]): 7 | Plant response rating, Redroot pigweed (pigweed; [2]): 9 | Redroot pigweed plant response rating (pigweed; [3]): 10 | Redroot pigweed plant response rating (pigweed; [6]): 10 | B. signalgrass plant response rating (surinam grass; [1]): 5 | Plant response rating, B. signalgrass (surinam grass; [4]): 10 | B. signalgrass plant response rating (surinam grass; [3]): 10 | B. signalgrass plant response rating (surinam grass; [6]): 10 | Cocklebur plant response rating (cocklebur; [1]): 0 | Plant response rating, Cocklebur (cocklebur; [4]): 0 | Cocklebur plant response rating (cocklebur; [3]): 0 | Cocklebur plant response rating (cocklebur; [6]): 0 | Wheat plant response rating (wheat; [1]): 0 | Plant response rating, Wheat (wheat; [2]): 0 | Wheat plant response rating (wheat; [3]): 4 | Wheat plant response rating (wheat; [6]): 6

Source: US6737383B1, “Herbicidal oxadiazolidines” (priority 1999, dated 2004)
